{"source": "paper PMC9049325", "about": "(ChemMedChem, 2020)", "key": {"[1]": {"system": "CB-R-HCT116 cells", "assay": "Western blot of UPR / p97 inhibition biomarkers, CB-R-HCT116", "format": "cell-based", "conditions": "CB-R-HCT116, 10 μM, 6 hours"}, "[2]": {"system": "CB-5083 resistant p97 mutants", "assay": "p97 ATPase activity assay, panel of CB-5083 resistant mutants", "format": "biochemical", "conditions": "among CB-5083 resistant mutants"}, "[3]": {"system": "HCT116 cells", "conditions": "HCT116, 2.5 μM, 6 hours"}, "[4]": {"system": "CB-R-HCT116 cells (p97 D649A/T688A)", "assay": "Cell proliferation, CB-5083 resistant HCT116 versus parental HCT116", "format": "cell-based", "conditions": "for sensitivity of CB-R-HCT116 compared with parental HCT116: cell proliferation"}, "[5]": {"system": "seven cancer lines", "assay": "Cancer cell proliferation assay", "format": "cell-based", "conditions": "for IC50: read-out: IC50 for inhibition of proliferation"}, "[6]": {"target": "p97 D649A/T688A double mutant", "assay": "p97 ATPase activity assay, D649A/T688A double mutant", "format": "biochemical", "conditions": "protein concentration and reaction time each increased 4-fold"}, "[7]": {"system": "A549 cells", "assay": "Intracellular compound concentration determination"}, "[8]": {"target": "p97 ATPase (Homo sapiens, UniProt P55072)", "sequence (P55072 whole entry)": "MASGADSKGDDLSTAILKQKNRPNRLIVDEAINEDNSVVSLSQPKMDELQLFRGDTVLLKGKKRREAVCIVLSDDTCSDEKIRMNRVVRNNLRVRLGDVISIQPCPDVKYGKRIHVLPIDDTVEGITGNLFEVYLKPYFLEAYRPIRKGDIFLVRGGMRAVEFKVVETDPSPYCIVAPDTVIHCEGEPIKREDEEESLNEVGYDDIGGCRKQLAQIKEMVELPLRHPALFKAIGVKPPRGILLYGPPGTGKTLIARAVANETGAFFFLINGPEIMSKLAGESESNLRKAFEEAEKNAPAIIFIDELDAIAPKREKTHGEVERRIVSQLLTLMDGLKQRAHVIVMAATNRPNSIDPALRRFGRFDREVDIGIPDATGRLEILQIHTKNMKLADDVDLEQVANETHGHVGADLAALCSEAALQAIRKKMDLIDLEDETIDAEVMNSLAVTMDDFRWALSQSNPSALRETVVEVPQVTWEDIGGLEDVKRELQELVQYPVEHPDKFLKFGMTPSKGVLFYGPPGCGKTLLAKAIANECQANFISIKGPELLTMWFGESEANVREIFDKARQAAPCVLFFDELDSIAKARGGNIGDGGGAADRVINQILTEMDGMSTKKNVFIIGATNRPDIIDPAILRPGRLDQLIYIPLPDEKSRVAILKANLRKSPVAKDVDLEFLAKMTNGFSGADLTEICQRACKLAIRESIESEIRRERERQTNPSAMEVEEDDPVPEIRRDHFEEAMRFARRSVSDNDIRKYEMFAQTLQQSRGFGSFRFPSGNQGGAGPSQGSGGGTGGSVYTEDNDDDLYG", "assay": "Steady-state kinetic analysis of p97 ATPase inhibition", "format": "biochemical", "conditions": "ten ATP concentrations, 2 or 3 inhibitor concentrations"}, "[9]": {"system": "A549 cells"}, "[10]": {"target": "T1, WT p97 (Homo sapiens, UniProt P55072)", "T1 sequence (P55072 whole entry)": "as above", "assay": "p97 ATPase activity assay, WT", "format": "biochemical"}, "[11]": {"target": "p97 T688A mutant (Homo sapiens, UniProt P55072, T688A)", "sequence (P55072 whole entry T688A)": "as the sequence (P55072 whole entry) above, with T688A counted along it", "assay": "p97 ATPase activity assay, T688A mutant", "format": "biochemical"}, "[12]": {"target": "T1, WT p97", "assay": "Thermal shift assay", "format": "binding", "conditions": "TSA, WT compared with N660K and T688A"}}, "note": "Read-outs that look alike come from different tables or passages of the source."}
{"smiles": "Cc1cc2c(C(N)=O)cccc2n1-c1nc2c(c(NCc3ccccc3)n1)COCC2", "note": "[CB-5083]", "values": [{"measurement": "changes in biomarkers (K48 ubiquitination, ATF4, CHOP, p62)", "setting": "[1]", "result": "no effects on these biomarkers"}, {"measurement": "mutants most resistant to inhibition", "setting": "[2]", "result": "N660K and T688A are the most resistant"}, {"measurement": "changes in biomarkers (K48 ubiquitination, ATF4, CHOP, p62)", "setting": "[3]", "result": "accumulation of K48 ubiquitination, ATF4 and CHOP"}, {"measurement": "inhibition of proliferation", "setting": "[4]; CB-R-HCT116, 10.5 μM", "result": "only slightly inhibited"}, {"measurement": "sensitivity of CB-R-HCT116 compared with parental HCT116", "setting": "[4]", "result": "unaffected"}, {"measurement": "IC50", "setting": "[5]", "result": "500 to 4000", "unit": "nM"}, {"measurement": "IC50 increase toward D649A/T688A vs WT p97", "setting": "[6]", "result": "about 400 fold"}]}
{"smiles": "COc1cccc2c(NCc3ccccc3)nc(-n3c(N)nc4ccccc43)nc12", "note": "[ML240]", "values": [{"measurement": "mutants most resistant to inhibition", "setting": "[2]", "result": "N660K and T688A are the most resistant"}]}
{"smiles": "c1ccc(CNc2nc(N3CCOc4ccccc43)nc3c2CCCC3)cc1", "note": "[ML241]", "values": [{"measurement": "mutants most resistant to inhibition", "setting": "[2]", "result": "N660K and T688A are the most resistant"}]}
{"smiles": "Cc1cc(OCc2nnc(SC3CCCC3)n2-c2cccnc2)ccc1-c1ccc(S(C)(=O)=O)cc1", "note": "[NMS-873]", "values": [{"measurement": "intracellular concentration reached", "setting": "[7]", "result": "millimolar"}, {"measurement": "sensitivity of CB-R-HCT116 compared with parental HCT116", "setting": "[4]", "result": "slightly more sensitive"}, {"measurement": "mechanism of inhibition", "setting": "[8]", "result": "noncompetitive inhibitor"}, {"measurement": "IC50", "setting": "[5]", "result": "500 to 4000", "unit": "nM"}]}
{"smiles": "CC(C)N1CCN(CCNC2CCN(c3cccc(-c4cc5cc(F)ccc5[nH]4)c3)CC2)CC1", "note": "[UPCDC-30245]", "values": [{"measurement": "intracellular concentration relative to NMS-873", "setting": "[7]; 5 μM", "result": 12, "unit": "fold"}, {"measurement": "intracellular concentration reached", "setting": "[9]", "result": "millimolar"}, {"measurement": "time to steady-state intracellular concentration", "setting": "[9]", "result": 3, "unit": "h"}, {"measurement": "fold less potent than NMS-873 in the ATPase activity assay", "setting": "[10]; WT p97", "result": 12, "unit": "fold"}, {"measurement": "IC50", "setting": "[10]; read-out: IC50 toward WT p97 ATPase activity, biochemical assay", "result": 300, "unit": "nM"}, {"measurement": "fold resistance of T688A (IC50 increase vs WT)", "setting": "[11]", "result": 3, "unit": "fold"}, {"measurement": "sensitivity of CB-R-HCT116 compared with parental HCT116", "setting": "[4]", "result": "similarly sensitive"}, {"measurement": "mechanism of inhibition", "setting": "[8]", "result": "noncompetitive inhibition"}, {"measurement": "potency at inhibiting cell proliferation compared with NMS-873", "setting": "[5]; HT29 cells", "result": "more potent"}, {"measurement": "IC50 increase toward D649A/T688A vs WT p97", "setting": "[6]", "result": 2, "unit": "fold"}, {"measurement": "effect on Tm of WT, N660K and T688A p97", "setting": "[12]", "result": "did not stabilize WT or either mutant p97 protein"}]}
